Where “and” joins values, the source holds several entries; their conditions need not be identical. Equal entries are not always repeated.
How the values were obtained:
[1] = system: VEGF-A production in ARPE-19 cells; assay: VEGF-A ELISA in ARPE-19 retinal cells, Experiment 1; assay type: cell-based, human; settings: for Mean (pg VEGF-A per mL): mean of Adj. Result, Wells 1-3; for Mean (pg VEGF-A per μg protein): mean of Wells 1-3; for % Control: normalized for protein; for Adj. Result (pg VEGF-A per mL) / Result (pg VEGF-A per mL): 72 Hr; for Adj. Result (pg VEGF-A per mL): per well, adjusted for dilution; for Result (pg VEGF-A per mL): single reads, higher than top of standard curve
[2] = system: VEGF-A production in ARPE-19 cells; assay: VEGF-A ELISA in ARPE-19 retinal cells, Experiment 2;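 on all read-outs here: confluent ARPE-19 cells in 96-well plates, VEGF-A in culture supernatant quantified by ELISA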; assay type: cell-based, human; settings: for pg VEGF-A per mL: based on collecting 0.1 ml of supernatant; for Mean (pg VEGF-A per mL): mean of Adj. Result, Wells 1-3; for Mean (pg VEGF-A per μg protein): mean of Wells 1-3; for Mean (pg VEGF-A per μg protein) / % Control: Experiment 2; for % Control: normalized for protein; for Mean Result (pg VEGF-A per mL) / pg VEGF-A per μg protein / Adj. Result (pg VEGF-A per mL): per well; for Adj. Result (pg VEGF-A per mL): adjusted for dilution; for Result (pg VEGF-A per mL): single reads

Anti-STAT3 VHH13: anti-STAT3 single domain antibody, SEQ ID NO:3; bacterially produced form referred to as SBT-100
% Negative Control ([1]; 0.1 μg/well, 24 Hr): 71.1% | Mean (pg VEGF-A per mL) ([1]; 0.1 μg/well, 24 Hr): 2060 pg VEGF-A per mL | Mean (pg VEGF-A per μg protein) ([1]; 0.1 μg/well, 24 Hr): 66 pg VEGF-A per μg protein | % Control ([1]; 0.1 μg/well, 24 Hr): 76.8% | Adj. Result (pg VEGF-A per mL) ([1]; 0.1 μg/well): >12,000 pg VEGF-A per mL | Result (pg VEGF-A per mL) ([1]; 0.1 μg/well): >6,000 pg VEGF-A per mL | Mean (pg VEGF-A per mL) ([1]; 0.5 μg/well, 24 Hr): 2664 pg VEGF-A per mL | Mean (pg VEGF-A per μg protein) ([1]; 0.5 μg/well, 24 Hr): 99 pg VEGF-A per μg protein | % Control ([1]; 0.5 μg/well, 24 Hr): 115.8% | Adj. Result (pg VEGF-A per mL) ([1]; 0.5 μg/well): >12,000 pg VEGF-A per mL | Result (pg VEGF-A per mL) ([1]; 0.5 μg/well): >6,000 pg VEGF-A per mL | % Negative Control ([2]; 0.1 μg/well, 12 Hr): 123.8% | pg VEGF-A per mL ([2]; 0.1 μg/well, 12 Hr): 18.6 pg VEGF-A per mL and 14.3 pg VEGF-A per mL and 15 pg VEGF-A per mL | Mean (pg VEGF-A per mL) ([2]; 0.1 μg/well, 12 Hr): 159.7 pg VEGF-A per mL | Mean (pg VEGF-A per μg protein) ([2]; 0.1 μg/well, 12 Hr): 2.540 pg VEGF-A per μg protein | % Control ([2]; 0.1 μg/well, 12 Hr): 134.4% | Mean Result (pg VEGF-A per mL) ([2]; 0.1 μg/well, 12 Hr): 37.2 pg VEGF-A per mL and 28.54 pg VEGF-A per mL and 30.06 pg VEGF-A per mL | pg VEGF-A per μg protein ([2]; 0.1 μg/well, 12 Hr): 3 pg VEGF-A per μg protein and 2.1 pg VEGF-A per μg protein and 2.4 pg VEGF-A per μg protein | Adj. Result (pg VEGF-A per mL) ([2]; 0.1 μg/well, 12 Hr): 186.02 pg VEGF-A per mL and 142.71 pg VEGF-A per mL and 150.31 pg VEGF-A per mL | Result (pg VEGF-A per mL) ([2]; 0.1 μg/well, 12 Hr): 30.38 pg VEGF-A per mL and 36.84 pg VEGF-A per mL and 37.57 pg VEGF-A per mL and 29.44 pg VEGF-A per mL and 27.64 pg VEGF-A per mL and 29.74 pg VEGF-A per mL | % Negative Control ([2]; 0.1 μg/well, 24 Hr): 93.6% | pg VEGF-A per mL ([2]; 0.1 μg/well, 24 Hr): 27.9 pg VEGF-A per mL and 28 pg VEGF-A per mL and 30.4 pg VEGF-A per mL | Mean (pg VEGF-A per mL) ([2]; 0.1 μg/well, 24 Hr): 287.4 pg VEGF-A per mL | Mean (pg VEGF-A per μg protein) ([2]; 0.1 μg/well, 24 Hr): 4.152 pg VEGF-A per μg protein | % Control ([2]; 0.1 μg/well, 24 Hr): 94.1% | Mean Result (pg VEGF-A per mL) ([2]; 0.1 μg/well, 24 Hr): 55.73 pg VEGF-A per mL and 56.02 pg VEGF-A per mL and 60.72 pg VEGF-A per mL | pg VEGF-A per μg protein ([2]; 0.1 μg/well, 24 Hr): 3.8 pg VEGF-A per μg protein and 4.0 pg VEGF-A per μg protein and 4.7 pg VEGF-A per μg protein | Adj. Result (pg VEGF-A per mL) ([2]; 0.1 μg/well, 24 Hr): 278.66 pg VEGF-A per mL and 280.09 pg VEGF-A per mL and 303.58 pg VEGF-A per mL | Result (pg VEGF-A per mL) ([2]; 0.1 μg/well, 24 Hr): 58.86 pg VEGF-A per mL and 52.60 pg VEGF-A per mL and 59.52 pg VEGF-A per mL and 52.51 pg VEGF-A per mL and 64.54 pg VEGF-A per mL and 56.89 pg VEGF-A per mL | % Negative Control ([2]; 0.1 μg/well, 48 Hr): 100% | pg VEGF-A per mL ([2]; 0.1 μg/well, 48 Hr): 94.7 pg VEGF-A per mL and 85.1 pg VEGF-A per mL and 110 pg VEGF-A per mL | Mean (pg VEGF-A per mL) ([2]; 0.1 μg/well, 48 Hr): 966 pg VEGF-A per mL | Mean (pg VEGF-A per μg protein) ([2]; 0.1 μg/well, 48 Hr): 14.067 pg VEGF-A per μg protein | % Control ([2]; 0.1 μg/well, 48 Hr): 107.4% | Mean Result (pg VEGF-A per mL) ([2]; 0.1 μg/well, 48 Hr): 189.30 pg VEGF-A per mL and 170.27 pg VEGF-A per mL and 220.04 pg VEGF-A per mL | pg VEGF-A per μg protein ([2]; 0.1 μg/well, 48 Hr): 14.1 pg VEGF-A per μg protein and 13.1 pg VEGF-A per μg protein and 15.1 pg VEGF-A per μg protein | Adj. Result (pg VEGF-A per mL) ([2]; 0.1 μg/well, 48 Hr): 946.50 pg VEGF-A per mL and 851.33 pg VEGF-A per mL and 1100.22 pg VEGF-A per mL | Result (pg VEGF-A per mL) ([2]; 0.1 μg/well, 48 Hr): 195.75 pg VEGF-A per mL and 182.85 pg VEGF-A per mL and 173.80 pg VEGF-A per mL and 166.73 pg VEGF-A per mL and 220.87 pg VEGF-A per mL and 219.22 pg VEGF-A per mL | % Negative Control ([2]; 1 μg/well, 12 Hr): 110.5% | pg VEGF-A per mL ([2]; 1 μg/well, 12 Hr): 12.9 pg VEGF-A per mL and 13.7 pg VEGF-A per mL and 16.1 pg VEGF-A per mL | Mean (pg VEGF-A per mL) ([2]; 1 μg/well, 12 Hr): 142.5 pg VEGF-A per mL | Mean (pg VEGF-A per μg protein) ([2]; 1 μg/well, 12 Hr): 2.273 pg VEGF-A per μg protein | % Control ([2]; 1 μg/well, 12 Hr): 120.3% | Mean Result (pg VEGF-A per mL) ([2]; 1 μg/well, 12 Hr): 25.82 pg VEGF-A per mL and 27.43 pg VEGF-A per mL and 32.23 pg VEGF-A per mL | pg VEGF-A per μg protein ([2]; 1 μg/well, 12 Hr): 2 pg VEGF-A per μg protein and 2.2 pg VEGF-A per μg protein and 2.7 pg VEGF-A per μg protein | Adj. Result (pg VEGF-A per mL) ([2]; 1 μg/well, 12 Hr): 129.12 pg VEGF-A per mL and 137.14 pg VEGF-A per mL and 161.16 pg VEGF-A per mL | Result (pg VEGF-A per mL) ([2]; 1 μg/well, 12 Hr): 26.74 pg VEGF-A per mL and 24.91 pg VEGF-A per mL and 26.62 pg VEGF-A per mL and 28.24 pg VEGF-A per mL and 33.18 pg VEGF-A per mL and 31.29 pg VEGF-A per mL | % Negative Control ([2]; 1 μg/well, 24 Hr): 106.8% | pg VEGF-A per mL ([2]; 1 μg/well, 24 Hr): 37.3 pg VEGF-A per mL and 31.2 pg VEGF-A per mL and 29.9 pg VEGF-A per mL | Mean (pg VEGF-A per mL) ([2]; 1 μg/well, 24 Hr): 327.9 pg VEGF-A per mL | Mean (pg VEGF-A per μg protein) ([2]; 1 μg/well, 24 Hr): 4.084 pg VEGF-A per μg protein | Mean Result (pg VEGF-A per mL) ([2]; 1 μg/well, 24 Hr): 74.61 pg VEGF-A per mL and 62.42 pg VEGF-A per mL and 59.71 pg VEGF-A per mL | Adj. Result (pg VEGF-A per mL) ([2]; 1 μg/well, 24 Hr): 373.06 pg VEGF-A per mL and 312.11 pg VEGF-A per mL and 298.74 pg VEGF-A per mL | Result (pg VEGF-A per mL) ([2]; 1 μg/well, 24 Hr): 78.44 pg VEGF-A per mL and 70.78 pg VEGF-A per mL and 68.61 pg VEGF-A per mL and 56.23 pg VEGF-A per mL and 63.71 pg VEGF-A per mL and 55.71 pg VEGF-A per mL | pg VEGF-A per mL ([2]; 1 μg/well, 48 Hr): 87.6 pg VEGF-A per mL and 101.9 pg VEGF-A per mL and 111.9 pg VEGF-A per mL | Mean (pg VEGF-A per mL) ([2]; 1 μg/well, 48 Hr): 1004.7 pg VEGF-A per mL | Mean (pg VEGF-A per μg protein) ([2]; 1 μg/well, 48 Hr): 13.796 pg VEGF-A per μg protein | % Control ([2]; 1 μg/well, 48 Hr): 105.4% | Mean Result (pg VEGF-A per mL) ([2]; 1 μg/well, 48 Hr): 175.22 pg VEGF-A per mL and 203.89 pg VEGF-A per mL and 223.71 pg VEGF-A per mL | pg VEGF-A per μg protein ([2]; 1 μg/well, 48 Hr): 12.4 pg VEGF-A per μg protein and 13.6 pg VEGF-A per μg protein and 15.3 pg VEGF-A per μg protein | Adj. Result (pg VEGF-A per mL) ([2]; 1 μg/well, 48 Hr): 876.08 pg VEGF-A per mL and 1019.44 pg VEGF-A per mL and 1118.55 pg VEGF-A per mL | Result (pg VEGF-A per mL) ([2]; 1 μg/well, 48 Hr): 168.84 pg VEGF-A per mL and 181.59 pg VEGF-A per mL and 195.75 pg VEGF-A per mL and 212.03 pg VEGF-A per mL and 225.75 pg VEGF-A per mL and 221.67 pg VEGF-A per mL | % Negative Control ([2]; 10 μg/well, 12 Hr): 107.8% | pg VEGF-A per mL ([2]; 10 μg/well, 12 Hr): 15.2 pg VEGF-A per mL and 12.2 pg VEGF-A per mL and 14.3 pg VEGF-A per mL | Mean (pg VEGF-A per mL) ([2]; 10 μg/well, 12 Hr): 139.00 pg VEGF-A per mL
